Source: patent US10654832B2, “3-(benzoimidazol-2-YL)-indazole inhibitors of the Wnt signaling pathway and therapeutic uses thereof” (Samumed, LLC, priority 2013, dated 2020)

What follows are molecules tested on Wnt activity (wnt-responsive SP5 promoter luciferase reporter in SW480 cells) (assay: Wnt activity reporter assay (SP5 promoter-firefly luciferase in SW480 cells)). Conditions: Homo sapiens; SW480 colon cancer cells with SP5 promoter luciferase reporter; 24 h after compound addition; half-log dilutions, three micromolar top concentration; normalized to DMSO; read-out: Wnt inhibition.
Format: cell-based
Excerpt: The above synthesized compounds were screened using the assay procedure for Wnt activity described below.
Reporter cell lines were generated by stably transducing cells of cancer cell lines (e.g., colon cancer) with a lentiviral construct that include a wnt-responsive promoter driving expression of the firefly luciferase gene.
Lentiviral constructs were made in which the SP5 promoter, a promoter having eight TCF/LEF binding sites derived from the SP5 promoter, was linked upstream of the firefly luciferase gene. The lentiviral constructs included a hygromycin resistance gene as a selectable marker. The SP5 promoter construct was used to transduce SW480 cells, a colon cancer cell line having a mutated APC gene that generates a truncated APC protein, leading to de-regulated accumulation of β-catenin.
Cultured SW480 cells bearing a reporter construct were distributed at approximately 10,000 cells per well into 384 well multiwell plates. Compounds were then added to the wells in half-log dilutions using a three micromolar top concentration. A series of control wells for each cell type received only buffer and compound solvent. Twenty-four hours after the addition of compound, reporter activity for luciferases was assayed, for example, by addition of the BrightGlo luminescence reagent (Promega) and the Victor3 plate reader (Perkin Elmer). Readings were normalized to DMSO only treated cells, and normalized activities were then used for the IC50 calculations.

SMILES	IC50
CCC(=O)Nc1cncc(-c2ccc3[nH]nc(-c4nc5c(-c6cccc(F)c6)cccc5[nH]4)c3c2)c1 [Compound 1, N-(5-(3-(4-(3-Fluorophenyl)-1H-benzo[d]imidazol-2-yl)-1H-indazol-5-yl)pyridin-3-yl)propionamide]	2 nM
Fc1cccc(-c2cccc3[nH]c(-c4n[nH]c5ccc(-c6cccnc6)cc45)nc23)c1 [Compound 4, 3-(4-(3-Fluorophenyl)-1H-benzo[d]imidazol-2-yl)-5-(pyridin-3-yl)-1H-indazole]	4 nM
Cc1ccncc1-c1ccc2[nH]nc(-c3nc4c(-c5cccc(F)c5)cccc4[nH]3)c2c1 [Compound 5, 3-(4-(3-Fluorophenyl)-1H-benzo[d]imidazol-2-yl)-5-(4-methylpyridin-3-yl)-1H-indazole]	34 nM
CN(C)c1cncc(-c2ccc3[nH]nc(-c4nc5c(-c6cccc(F)c6)cccc5[nH]4)c3c2)c1 [Compound 7, 5-(3-(4-(3-Fluorophenyl)-1H-benzo[d]imidazol-2-yl)-1H-indazol-5-yl)-N,N-dimethylpyridin-3-amine]	8 nM
CC(C)C(=O)Nc1cncc(-c2ccc3[nH]nc(-c4nc5c(-c6cccc(F)c6)cccc5[nH]4)c3c2)c1 [Compound 9, N-(5-(3-(4-(3-Fluorophenyl)-1H-benzo[d]imidazol-2-yl)-1H-indazol-5-yl)pyridin-3-yl)isobutyramide]	250 nM
O=C(Cc1ccccc1)Nc1cncc(-c2ccc3[nH]nc(-c4nc5c(-c6cccc(F)c6)cccc5[nH]4)c3c2)c1 [Compound 10, N-(5-(3-(4-(3-Fluorophenyl)-1H-benzo[d]imidazol-2-yl)-1H-indazol-5-yl)pyridin-3-yl)-2-phenylacetamide]	69 nM
CN(C)Cc1cncc(-c2ccc3[nH]nc(-c4nc5c(-c6cccc(F)c6)cccc5[nH]4)c3c2)c1 [Compound 13, 1-(5-(3-(4-(3-Fluorophenyl)-1H-benzo[d]imidazol-2-yl)-1H-indazol-5-yl)pyridin-3-yl)-N,N-dimethylmethanamine]	11 nM
CC(C)(C)CC(=O)Nc1cncc(-c2ccc3[nH]nc(-c4nc5c(-c6cccc(F)c6)cccc5[nH]4)c3c2)c1 [Compound 16, N-(5-(3-(4-(3-Fluorophenyl)-1H-benzo[d]imidazol-2-yl)-1H-indazol-5-yl)pyridin-3-yl)-3,3-dimethylbutanamide]	31 nM
CCCCC(=O)Nc1cncc(-c2ccc3[nH]nc(-c4nc5c(-c6cccc(F)c6)cccc5[nH]4)c3c2)c1 [Compound 18, N-(5-(3-(4-(3-Fluorophenyl)-1H-benzo[d]imidazol-2-yl)-1H-indazol-5-yl)pyridin-3-yl)pentanamide]	30 nM
O=C(Nc1cncc(-c2ccc3[nH]nc(-c4nc5c(-c6cccc(F)c6)cccc5[nH]4)c3c2)c1)C1CC1 [Compound 19, N-(5-(3-(4-(3-Fluorophenyl)-1H-benzo[d]imidazol-2-yl)-1H-indazol-5-yl)pyridin-3-yl)cyclopropanecarboxamide]	5 nM
O=C(Nc1cncc(-c2ccc3[nH]nc(-c4nc5c(-c6cccc(F)c6)cccc5[nH]4)c3c2)c1)C1CCCC1 [Compound 21, N-(5-(3-(4-(3-Fluorophenyl)-1H-benzo[d]imidazol-2-yl)-1H-indazol-5-yl)pyridin-3-yl)cyclopentanecarboxamide]	50 nM
O=C(Nc1cncc(-c2ccc3[nH]nc(-c4nc5c(-c6cccc(F)c6)cccc5[nH]4)c3c2)c1)C1CCCCC1 [Compound 22, N-(5-(3-(4-(3-Fluorophenyl)-1H-benzo[d]imidazol-2-yl)-1H-indazol-5-yl)pyridin-3-yl)cyclohexanecarboxamide]	180 nM
CC(C)CC(=O)Nc1cncc(-c2ccc3[nH]nc(-c4nc5c(-c6ccc(F)cc6)cccc5[nH]4)c3c2)c1 [Compound 26, N-(5-(3-(4-(4-Fluorophenyl)-1H-benzo[d]imidazol-2-yl)-1H-indazol-5-yl)pyridin-3-yl)-3-methylbutanamide]	179 nM
Cc1ccncc1-c1ccc2[nH]nc(-c3nc4c(-c5ccc(F)cc5)cccc4[nH]3)c2c1 [Compound 29, 3-(4-(4-Fluorophenyl)-1H-benzo[d]imidazol-2-yl)-5-(4-methylpyridin-3-yl)-1H-indazole]	100 nM
CC(C)(C)C(=O)Nc1cncc(-c2ccc3[nH]nc(-c4nc5c(-c6ccc(F)cc6)cccc5[nH]4)c3c2)c1 [Compound 32, N-(5-(3-(4-(4-Fluorophenyl)-1H-benzo[d]imidazol-2-yl)-1H-indazol-5-yl)pyridin-3-yl)pivalamide]	35 nM
CC(C)C(=O)Nc1cncc(-c2ccc3[nH]nc(-c4nc5c(-c6ccc(F)cc6)cccc5[nH]4)c3c2)c1 [Compound 33, N-(5-(3-(4-(4-Fluorophenyl)-1H-benzo[d]imidazol-2-yl)-1H-indazol-5-yl)pyridin-3-yl)isobutyramide]	34 nM

SMILES	IC50
O=C(Nc1cncc(-c2ccc3[nH]nc(-c4nc5c(-c6ccc(F)cc6)cccc5[nH]4)c3c2)c1)c1ccccc1 [Compound 35, N-(5-(3-(4-(4-Fluorophenyl)-1H-benzo[d]imidazol-2-yl)-1H-indazol-5-yl)pyridin-3-yl)benzamide]	161 nM
Fc1ccc(-c2cccc3[nH]c(-c4n[nH]c5ccc(-c6cncc(CN7CCCC7)c6)cc45)nc23)cc1 [Compound 38, 3-(4-(4-Fluorophenyl)-1H-benzo[d]imidazol-2-yl)-5-(5-(pyrrolidin-1-ylmethyl)pyridin-3-yl)-1H-indazole]	153 nM
CCCC(=O)Nc1cncc(-c2ccc3[nH]nc(-c4nc5c(-c6ccc(F)cc6)cccc5[nH]4)c3c2)c1 [Compound 41, N-(5-(3-(4-(4-Fluorophenyl)-1H-benzo[d]imidazol-2-yl)-1H-indazol-5-yl)pyridin-3-yl)butyramide]	15 nM
CCCCC(=O)Nc1cncc(-c2ccc3[nH]nc(-c4nc5c(-c6ccc(F)cc6)cccc5[nH]4)c3c2)c1 [Compound 42, N-(5-(3-(4-(4-Fluorophenyl)-1H-benzo[d]imidazol-2-yl)-1H-indazol-5-yl)pyridin-3-yl)pentanamide]	33 nM
O=C(Nc1cncc(-c2ccc3[nH]nc(-c4nc5c(-c6ccc(F)cc6)cccc5[nH]4)c3c2)c1)C1CC1 [Compound 43, N-(5-(3-(4-(4-Fluorophenyl)-1H-benzo[d]imidazol-2-yl)-1H-indazol-5-yl)pyridin-3-yl)cyclopropanecarboxamide]	43 nM
O=C(Nc1cncc(-c2ccc3[nH]nc(-c4nc5c(-c6ccc(F)cc6)cccc5[nH]4)c3c2)c1)C1CCC1 [Compound 44, N-(5-(3-(4-(4-Fluorophenyl)-1H-benzo[d]imidazol-2-yl)-1H-indazol-5-yl)pyridin-3-yl)cyclobutanecarboxamide]	140 nM
O=C(Nc1cncc(-c2ccc3[nH]nc(-c4nc5c(-c6ccc(F)cc6)cccc5[nH]4)c3c2)c1)C1CCCC1 [Compound 45, N-(5-(3-(4-(4-Fluorophenyl)-1H-benzo[d]imidazol-2-yl)-1H-indazol-5-yl)pyridin-3-yl)cyclopentanecarboxamide]	110 nM
O=C(Nc1cncc(-c2ccc3[nH]nc(-c4nc5c(-c6ccc(F)cc6)cccc5[nH]4)c3c2)c1)C1CCCCC1 [Compound 46, N-(5-(3-(4-(4-Fluorophenyl)-1H-benzo[d]imidazol-2-yl)-1H-indazol-5-yl)pyridin-3-yl)cyclohexanecarboxamide]	225 nM
Fc1ccc(-c2cccc3[nH]c(-c4n[nH]c5ccc(-c6cncc(CNCc7ccccc7)c6)cc45)nc23)cc1 [Compound 47, N-benzyl-1-(5-(3-(4-(4-Fluorophenyl)-1H-benzo[d]imidazol-2-yl)-1H-indazol-5-yl)pyridin-3-yl)methanamine]	450 nM
CCNCc1cncc(-c2ccc3[nH]nc(-c4nc5c(-c6ccccc6F)cccc5[nH]4)c3c2)c1 [Compound 54, N-((5-(3-(4-(2-Fluorophenyl)-1H-benzo[d]imidazol-2-yl)-1H-indazol-5-yl)pyridin-3-yl)methyl)ethanamine]	46 nM
O=C(Nc1cncc(-c2ccc3[nH]nc(-c4nc5c(-c6ccccc6F)cccc5[nH]4)c3c2)c1)c1ccccc1 [Compound 59, N-(5-(3-(4-(2-Fluorophenyl)-1H-benzo[d]imidazol-2-yl)-1H-indazol-5-yl)pyridin-3-yl)benzamide]	332 nM
Fc1ccccc1-c1cccc2[nH]c(-c3n[nH]c4ccc(-c5cncc(CN6CCCCC6)c5)cc34)nc12 [Compound 63, 3-(4-(2-Fluorophenyl)-1H-benzo[d]imidazol-2-yl)-5-(5-(piperidin-1-ylmethyl)pyridin-3-yl)-1H-indazole]	10 nM
CCCCC(=O)Nc1cncc(-c2ccc3[nH]nc(-c4nc5c(-c6ccccc6F)cccc5[nH]4)c3c2)c1 [Compound 66, N-(5-(3-(4-(2-Fluorophenyl)-1H-benzo[d]imidazol-2-yl)-1H-indazol-5-yl)pyridin-3-yl)pentanamide]	≥ 4000 nM
O=C(Nc1cncc(-c2ccc3[nH]nc(-c4nc5c(-c6ccccc6F)cccc5[nH]4)c3c2)c1)C1CCCC1 [Compound 69, N-(5-(3-(4-(2-Fluorophenyl)-1H-benzo[d]imidazol-2-yl)-1H-indazol-5-yl)pyridin-3-yl)cyclopentanecarboxamide]	23 nM
Fc1ccccc1-c1cccc2[nH]c(-c3n[nH]c4ccc(-c5cncc(CNCC6CCCC6)c5)cc34)nc12 [Compound 72, 1-Cyclopentyl-N-((5-(3-(4-(2-fluorophenyl)-1H-benzo[d]imidazol-2-yl)-1H-indazol-5-yl)pyridin-3-yl)methyl)methanamine]	1140 nM
